Reference: publication PMC8464850, “Sulfonium Ligands of the α7 nAChR” (Molecules, 2021)
Where a name gives a salt, the structure may show the parent alone.

What was measured:
pKa by titration = assay type: physicochemical; conditions: phenolic hydroxyl, data not shown for S9, S10, read-out: pKa
From the text: One of the questions that emerges from the data is why aromatic sulfoniums as structurally similar as S5, S9, and S10 provide different responses when coapplied with TQS. Indeed, compounds S5 and S9 virtually overlap in their best docked poses (Supplementary Figure S1), but the α7 response of S9 and TQS was dramatically greater than that of S5 and TQS (p < 0.001, Table S1). The formation of cation–pi interactions is a key feature of the binding of nicotinic orthosteric ligands, and the electronic distribution of the cation can be compared qualitatively in a series of compounds using molecular electrostatic potentials (MEPs). Analysis of the MEPs shown in Figure 9 reveal that the substituents on the benzene ring can modulate the intensity of the positive charge on the sulfonium center. Compound S5, for instance, has two hydroxyl groups which are strongly electron donating, and in comparison to compound S9, which has only one hydroxyl group, the intensity of the positive charge is […]. Another factor may be that a lone pair on the ortho hydroxyl substituent is donating electron density through space to the neighboring sulfonium, redistributing its positive charge. Compound S10 also has an ortho hydroxyl group, but unlike compound S5, compound S10 also has a nitro group, which is a strong electron-withdrawing group that may offset the electron-donating impact of the ortho hydroxyl group. Inspection of the MEP surface shown in Figure 9 does indicate that, relative to S5, the S10 sulfonium bears greater positive electrostatic potential. Given that compounds such as para-nitrophenol are acidic, with a pKa of ~7 for the phenolic hydroxyl, we also considered whether the deprotonated forms of S5, S9, and S10 might be accessible at the pH of our experiments.
Thus, all three compounds have varying proportions of the phenolic OH in the phenoxide form at the pH of Ringers solution used in the experiments. […] Future work on analogs of these compounds may be focused on substituents that are non-ionizable, and thus preserve a positive molecular charge derived from the sulfonium center.

α3β4 = molecular target: T1, α3β4 (Homo sapiens, UniProt P30926+P32297); assay: Activation of heteromeric nAChR by S1: α3β4; assay type: cell-based
T1 construct: expressed in transfected cells; host or cells: Xenopus laevis oocytes (injected RNA)
T1 sequence (P32297 32-505): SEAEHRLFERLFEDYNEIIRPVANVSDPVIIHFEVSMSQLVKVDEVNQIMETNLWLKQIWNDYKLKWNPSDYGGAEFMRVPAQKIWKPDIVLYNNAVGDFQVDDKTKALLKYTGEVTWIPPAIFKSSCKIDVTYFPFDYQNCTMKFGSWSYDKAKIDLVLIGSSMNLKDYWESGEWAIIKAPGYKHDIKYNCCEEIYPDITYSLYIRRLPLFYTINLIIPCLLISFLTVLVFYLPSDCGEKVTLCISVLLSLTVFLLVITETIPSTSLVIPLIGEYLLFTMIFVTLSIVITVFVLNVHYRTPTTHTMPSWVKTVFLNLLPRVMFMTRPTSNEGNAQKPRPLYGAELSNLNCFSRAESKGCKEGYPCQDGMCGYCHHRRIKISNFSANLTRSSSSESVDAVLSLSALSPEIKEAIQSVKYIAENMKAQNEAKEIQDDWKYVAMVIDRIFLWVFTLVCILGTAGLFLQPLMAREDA
T1 sequence (P30926 22-498): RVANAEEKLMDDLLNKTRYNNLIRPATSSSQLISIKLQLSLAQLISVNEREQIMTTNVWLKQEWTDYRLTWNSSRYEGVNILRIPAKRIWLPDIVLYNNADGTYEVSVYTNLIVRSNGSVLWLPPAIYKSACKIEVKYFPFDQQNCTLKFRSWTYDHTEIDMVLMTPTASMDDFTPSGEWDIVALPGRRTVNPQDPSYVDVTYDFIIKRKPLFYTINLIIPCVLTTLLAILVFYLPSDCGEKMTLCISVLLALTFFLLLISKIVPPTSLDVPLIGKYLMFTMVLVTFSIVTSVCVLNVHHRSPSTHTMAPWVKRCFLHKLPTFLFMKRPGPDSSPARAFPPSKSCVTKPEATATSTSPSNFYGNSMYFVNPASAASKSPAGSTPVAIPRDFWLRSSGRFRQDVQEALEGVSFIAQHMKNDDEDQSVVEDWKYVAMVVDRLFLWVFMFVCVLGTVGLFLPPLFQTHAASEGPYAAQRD
From the text: Concatamers were used in order to obtain heteromeric receptors with known subunit composition. The β2-6-α4 concatamer was co-expressed with monomeric α4, β2, or α5 to obtain receptors with the composition α4(3)β2(2), α4(2)β2(3), or α4(2)β2(2)α5, respectively. A concatamer of five linked subunits was used to obtain the β3α4 β2α6β2 receptors. The α3β4 receptors were formed from the co-expression of α3 and β4 subunit monomers at equal ratios. Note that the data were initially measured relative to internal ACh control responses for each oocyte (Methods). Responses were subsequently adjusted for the relative values of the ACh controls and the ACh maximum responses for each of the various subtypes, determined in previous experiments.
Figure 6 Activation of heteromeric neuronal nAChR by S1. […] Data are the average peak currents (n = 6–8 oocytes ± SEM), measured relative to initial ACh control responses for each oocyte (concentrations listed in Methods). Responses were subsequently adjusted for the relative values of the ACh controls and the ACh maximum responses for each of the various subtypes, determined in previous experiments. […]
Solutions were applied from 96-well plates via disposable tips. […] The responses were calculated as both peak current amplitudes and net charge, as previously described. […] Multi-cell averages were calculated for comparisons of complex responses. […]

Structure (SMILES)	pKa (pKa by titration)	IMax (S1 Activation) (α3β4; peak currents relative to ACh maximum)	EC50 (α3β4; peak currents, unit inferred) [µM]
C[S+](C)c1ccc(O)cc1 [Compound S9, (4-hydroxyphenyl)dimethylsulfonium methyl sulfate]	~7.3		
C[S+](C)C.[I-] [Compound S1, trimethylsulfonium iodide]		1.18 ± 0.01	1420 ± 19.4
C[S+](C)c1cc([N+](=O)[O-])ccc1O.[Br-] [Compound S10, (2-hydroxy-5-nitrophenyl)dimethylsulfonium bromide]	~5		
